Data: patent US10098964B2, “Inclusion complexes and methods for making the same” (The Board of Trustees of the University of Illinois, priority 2015, dated 2018)

Columns and labels:
[1] = In-vitro fermentation (large intestine): butyrate produced; type: in vitro ADME
[2] = cited from earlier work

Compound	Butyrate produced, 4 hr ([1]; fermentation 4 hr, representative of ascending large intestine)	Butyrate produced, 8 hr ([1]; fermentation 8 hr, representative of transverse large intestine)	Butyrate produced, 12 hr ([1]; fermentation 12 hr, representative of descending large intestine)	half-life in human plasma [2] [min]
CCCC(=O)OCC(COC(=O)CCC)OC(=O)CCC [Tributyrin, 1,3-di(butanoyloxy)propan-2-yl butanoate]	106389.69 µg/g (DMB)	164605.74 µg/g (DMB)	134093.05 µg/g (DMB)	
CCCC(=O)O [butyrate, butyric acid]				< 6
